This is an account of results in ChEMBL document CHEMBL5050856, “Atf6 modulators and uses thereof” (2021).

Common to all, as to type: cell-based
For experiment [1], the system named is U2OS. As to the kind of experiment: Modulation of ATF6 activity in human U2OS cells at 10 uM measured by TRE-luciferase reporter assay relative to control. On the technique in general: In a reporter assay the amount or activity of a reporter protein is the signal.
The test system of experiment [2] is U2OS. The experiment is described as follows: Modulation of ATF6 activity in human U2OS cells at 1 uM measured by TRE-luciferase reporter assay relative to control.
Experiment [3] relates to U2OS. As to the kind of experiment: Modulation of ATF6 activity in human U2OS cells at 10 uM in presence of ER stress inducer thapsigargin (Tg) measured by TRE-luciferase reporter assay relative to control.
For experiment [4], the system named is U2OS. As to the kind of experiment: Modulation of ATF6 activity in human U2OS cells at 1 uM in presence of ER stress inducer thapsigargin (Tg) measured by TRE-luciferase reporter assay relative to control.

Each structure is given as a SMILES string. A value given as a limit tells only on which side of the number the result lay.

Turning to `CC(c1c(Cl)cccc1Cl)n1cc(C#Cc2nnc(-c3ccccn3)s2)cn1` (configuration not stated), the Activity in experiment [1] came out at 0%; in experiment [2] it was 0%; in experiment [3] (filed as activator), 100%; in experiment [4], 75%.
Regarding `CC(c1ccc(C(F)(F)F)cc1C(F)(F)F)n1cc(/C=C/c2nnc(-c3ccccn3)s2)cn1` (configuration not stated), the Activity is under 50% in experiment [3] and 100% in experiment [4] (filed as activator).
Take `CC(c1ccc(C(F)(F)F)cc1C(F)(F)F)n1cc(CCc2nnc(-c3ccccn3)s2)cn1` (configuration not stated): the values for the Activity in experiment [3] and in experiment [4] were under 50% and 75%, respectively.
On to `FC(F)(F)c1ccc(Cn2cc(C#Cc3nnc(-c4ccccn4)s3)cn2)c(C(F)(F)F)c1`, for which the Activity in experiment [3] amounted to 75%; in experiment [4], 50%.
In the case of `O=C(Nc1cnn(C2CCCC2)c1)c1cc(-c2ccco2)on1`, the Activity in experiment [1] is 0%; in experiment [2] it was 0%; in experiment [3] (filed as activator), over 150%; in experiment [4] (filed as activator), over 150%.
As for `O=C(Nc1cnn(C2CCNC2)c1)c1cc(-c2ccco2)on1` (configuration not stated), the Activity in experiment [1] was 0%; in experiment [2], 0%; in experiment [3] (filed as activator), over 150%; in experiment [4] (filed as activator), 125%.
Take `O=C(Nc1cnn(C2CNC2)c1)c1cc(-c2ccco2)on1`: the values for the Activity in experiment [2] and in experiment [4] (filed as activator) were 0% and 125%, respectively.
`O=C(Nc1cnn(CC2CCCC2)c1)c1cc(-c2ccco2)on1`: the Activity in experiment [1] is 0%; in experiment [2], 0%; in experiment [3] (filed as activator), over 150%; in experiment [4] (filed as activator) it was over 150%.
On to `O=C(Nc1cnn(Cc2c(Cl)cncc2Cl)c1)c1cc(-c2ccco2)on1`, for which the Activity was determined as 0% in experiment [1], 0% in experiment [2], 125% in experiment [3] (filed as activator) and 100% in experiment [4] (filed as activator).
For `O=C(Nc1cnn(Cc2ccc(C(F)(F)F)cc2)c1)c1cc(-c2ccco2)on1`, the figures for the Activity in experiment [2], in experiment [3] and in experiment [4] (filed as activator) were 0%, 75% and 100%, respectively.
For the compound `O=C(Nc1cnn(Cc2ccc(C(F)(F)F)cc2C(F)(F)F)c1)c1cc(-c2ccco2)on1`, the Activity in experiment [3] and in experiment [4] was under 50% throughout.
As for `O=C(Nc1cnn(Cc2ccccc2)c1)c1cc(-c2ccco2)on1`, the Activity in experiment [1] came out at 25%; in experiment [2], 0%; in experiment [3] (filed as activator), 125%; in experiment [4] (filed as activator), 100%.
For the compound `CC(c1ccc(C(F)(F)F)cc1C(F)(F)F)n1cc(C#Cc2nnc(-c3ccccn3)s2)cn1` (stereo in doubt; 2-1), the Activity in experiment [3] is under 50%; in experiment [4], 50%.
For the compound `CC(c1ccc(C(F)(F)F)cc1C(F)(F)F)n1cc(C#Cc2nnc(-c3ccccn3)s2)cn1` (stereo in doubt; 2-2), the Activity in experiment [3] and in experiment [4] was under 50% throughout.
On to `CC(c1ccc(C(F)(F)F)cc1C(F)(F)F)n1cc(/C=C\c2nnc(-c3ccccn3)s2)cn1` (stereo in doubt; 2-6), for which the figures for the Activity in experiment [3] and in experiment [4] (filed as activator) were 50% and 100%, respectively.
For `CC(c1ccc(C(F)(F)F)cc1C(F)(F)F)n1cc(/C=C\c2nnc(-c3ccccn3)s2)cn1` (stereo in doubt; 2-7), the Activity stood at 75% in experiment [3] and 100% in experiment [4] (filed as activator).
Regarding `CC(c1ccc(C(F)(F)F)cc1C(F)(F)F)n1cc(/C=C\c2nnc(-c3ccccn3)s2)cn1` (stereo in doubt; 2-8), the Activity in experiment [3] was 50%; in experiment [4] (filed as activator), 100%.
Regarding `CC(c1ccc(C(F)(F)F)cc1C(F)(F)F)n1cc(C#Cc2nnc(-c3cnccn3)s2)cn1` (stereo in doubt; 2-10), the results for the Activity in experiment [3] and in experiment [4] were 75% and 50%, respectively.
As to `Cc1nn(C(C)c2ccc(C(F)(F)F)cc2C(F)(F)F)cc1C#Cc1nnc(-c2ccccn2)s1` (stereo in doubt; 2-11), the Activity in experiment [3] and in experiment [4] was 50% each time.
With `CC(c1ccc(C(F)(F)F)cc1C(F)(F)F)n1cc(C#Cc2nnc(-c3cnccn3)s2)cn1` (stereo in doubt; 2-21), the Activity in experiment [3] and in experiment [4] was 75% throughout.
As to `CC(c1ccc(C(F)(F)F)cc1C(F)(F)F)n1cc(C#Cc2nnc(-c3cnccn3)s2)cn1` (stereo in doubt; 2-22), the Activity was determined as 75% in experiment [3] and 50% in experiment [4].
Regarding `Cc1nn(C(C)c2ccc(C(F)(F)F)cc2C(F)(F)F)cc1C#Cc1nnc(-c2ccccn2)s1` (stereo in doubt; 2-23), the Activity stood at 50% in experiment [3] and 75% in experiment [4].
As for `Cc1nn(C(C)c2ccc(C(F)(F)F)cc2C(F)(F)F)cc1C#Cc1nnc(-c2ccccn2)s1` (stereo in doubt; 2-24), the Activity in experiment [3] and in experiment [4] was under 50% throughout.
In the case of `CC(C1CCCC1)n1cc(NC(=O)c2cc(-c3ccco3)on2)cn1` (stereo in doubt; 3-5), the Activity is 0% in experiment [1], 0% in experiment [2], over 150% in experiment [3] (filed as activator) and 125% in experiment [4] (filed as activator).
Consider `CC(C1CCCC1)n1cc(NC(=O)c2cc(-c3ccco3)on2)cn1` (stereo in doubt; 3-17), for which the Activity stood at 0% in experiment [1], 0% in experiment [2], 125% in experiment [3] (filed as activator) and 125% in experiment [4] (filed as activator).
With `CC(C1CCCC1)n1cc(NC(=O)c2cc(-c3ccco3)on2)cn1` (stereo in doubt; 3-18), the Activity worked out at 0% in experiment [1], 0% in experiment [2], 125% in experiment [3] (filed as activator) and 100% in experiment [4] (filed as activator).
In the case of `O=C(Nc1cnn(C2CCOC2)c1)c1cc(-c2cccs2)on1` (stereo in doubt; 3-19), the Activity was 25% in experiment [1], 0% in experiment [2], over 150% in experiment [3] (filed as activator) and over 150% in experiment [4] (filed as activator).
Consider `O=C(Nc1cnn(C2CCOC2)c1)c1cc(-c2ccccn2)on1` (stereo in doubt; 3-20), for which the Activity in experiment [1] was 0%; in experiment [2], 0%; in experiment [3] (filed as activator), over 150%; in experiment [4] (filed as activator), 100%.
Regarding `O=C(Nc1cnn(C2CCOC2)c1)c1cc(-c2ccccn2)on1` (stereo in doubt; 3-21), the Activity is 25% in experiment [1], 0% in experiment [2], over 150% in experiment [3] (filed as activator) and over 150% in experiment [4] (filed as activator).
On to `O=C(Nc1cnn(C2CCOC2)c1)c1cc(-c2cccs2)on1` (stereo in doubt; 3-22), for which the Activity in experiment [1] is 25%; in experiment [2] it was 0%; in experiment [3] (filed as activator), over 150%; in experiment [4] (filed as activator) it was 125%.
The like results for `O=C(Nc1cnn(C2CCOC2)c1)c1cc(-c2cccs2)on1` (stereo in doubt; 3-23) were, in that order, over 50%, 25%, over 150% and over 150%.
In the case of `CC(C1CCOC1)n1cc(NC(=O)c2cc(-c3ccco3)on2)cn1` (stereo in doubt; 3-24), the Activity in experiment [1] is 25%; in experiment [2], 0%; in experiment [3] (filed as activator) it was over 150%; in experiment [4] (filed as activator), 100%.
Take `CC(C1CCOC1)n1cc(NC(=O)c2cc(-c3ccco3)on2)cn1` (stereo in doubt; 3-25): the Activity was 0% in experiment [1], 0% in experiment [2], over 150% in experiment [3] (filed as activator) and 100% in experiment [4] (filed as activator).
For the compound `CC(C1CCOC1)n1cc(NC(=O)c2cc(-c3ccco3)on2)cn1` (stereo in doubt; 3-26), the Activity in experiment [1] is over 50%; in experiment [2], 0%; in experiment [3] (filed as activator) it was over 150%; in experiment [4] (filed as activator) it was over 150%.
In the case of `CC(C1CCOC1)n1cc(NC(=O)c2cc(-c3ccco3)on2)cn1` (stereo in doubt; 3-27), the Activity in experiment [1] is 25%; in experiment [2] it was 0%; in experiment [3] (filed as activator) it was over 150%; in experiment [4] (filed as activator), 100%.
